Test results published in patent US7750038B2, “Sulfonylated heterocycles useful for modulation of the progesterone receptor” (Wyeth LLC, priority 2007, dated 2010).

What follows are compounds tested on alkaline phosphatase activity in T47D cells (assay: Effects of progestins and antiprogestins on alkaline phosphatase activity in T47D cells). Conditions: Homo sapiens, agonist mode, typical value of reference compound.
Format: cell-based
Description: Effects of Progestins and Antiprogestins on Alkaline Phosphatase Activity in T47D Cells
PURPOSE: To identify progestins or antiprogestins by determining a compound's effect on alkaline phosphatase activity in T47D cells.
Culture medium: DMEM:F12 (1:1) (GIBCO, BRL) supplemented with 5% (v/v) charcoal stripped fetal bovine serum (not heat-inactivated), 100 U/mL penicillin, 100 μg/mL streptomycin, and 2 mM the GlutaMax™ reagent (GIBCO, BRL).
Alkaline phosphatase assay buffer: • I. 0.1M Tris-HCl, pH 9.8, containing 0.2% the Triton® X-100 reagent • II. 0.1M Tris-HCl, pH 9.8, containing 4 mM p-nitrophenyl phosphate (Sigma).
Frozen T47D cells were thawed in a 37° C. water bath and diluted to 280,000 cells/mL in culture medium. To each well in a 96-well plate (Falcon, Becton Dickinson Labware), 180 μL of diluted cell suspension was added. Twenty μL of reference or test compounds diluted in the culture medium was then added to each well. When testing for progestin antagonist activity, reference antiprogestins or test compounds were added in the presence of 1 nM progesterone. The cells were incubated at 37° C. in a 5% CO2/humidified atmosphere for 24 hours. For high throughput screening, one concentration of each compound was tested at 0.3 μg/mL. Based on an average molecular weight of 300 g/mol for the compounds in the library, the concentration was approximately 1 μM. Subsequently, active compounds were tested in dose response assays to determine EC50 and IC50.
At the end of treatment, the medium was removed from the plate. Fifty μL of assay buffer I was added to each well. The plates were shaken in a titer plate shaker for 15 min. Then, 150 μL of assay buffer II was added to each well. Optical density measurements were taken at 5 min intervals for 30 min at a test wavelength of 405 nm.
For reference and test compounds, a dose response curve was generated for dose (X-axis) vs. the rate of enzyme reaction (slope) (Y-axis). Square root-transformed data were used for analysis of variance and nonlinear dose response curve fitting for both agonist and antagonist modes. Huber weighting was used to down-weight the effects of outliers. EC50 or IC50 values were calculated from the retransformed values. JMP software (SAS Institute, Inc.) is used for both one-way analysis of variance and non-4 linear dose response analysis in both single dose and dose response studies.
Progesterone and trimegestone are reference progestins known in the art and typically show an EC50 of about 0.1 nM to about 2.0 nM.

Structure (SMILES) | EC50
CC(=O)[C@H]1CC[C@H]2[C@@H]3CCC4=CC(=O)CC[C@]4(C)[C@H]3CC[C@]12C [Progesterone] | 0.1 to 2 nM

Same assay, conditions: Homo sapiens, antagonist mode, typical value of reference compound, read-out: IC50 of reference antiprogestin, alkaline phosphatase T47D

Structure (SMILES) | IC50
CC#C[C@]1(O)CC[C@H]2[C@@H]3CCC4=CC(=O)CCC4=C3[C@@H](c3ccc(N(C)C)cc3)C[C@@]21C [RU486, reference compound] | 0.1 to 2 nM

Same assay, conditions: Homo sapiens, progestin antagonist mode in the presence of 1 nM progesterone, 24 hours, read-out: Alkaline Phosphatase T47D IC50

Structure (SMILES) | IC50
Cn1c(C#N)ccc1-c1ccc2c(c1)CCN2S(C)(=O)=O [Example 1, 1-methyl-5-[1-(methylsulfonyl)-2,3-dihydro-1H-indole-5-yl]-1H-pyrrole-2-carbonitrile] | 4.3 nM
Cn1c(C#N)ccc1-c1ccc2c(c1)C(C)(C)CN2S(C)(=O)=O [Example 2, 5-[3,3-dimethyl-1-(methylsulfonyl)-2,3-dihydro-1H-indol-5-yl]-1-methyl-1H-pyrrole-2-carbonitrile] | 9.2 nM
CCS(=O)(=O)N1CC(C)(C)c2cc(-c3ccc(C#N)n3C)ccc21 [Example 3, 5-[1-(ethylsulfonyl)-3,3-dimethyl-2,3-dihydro-1H-indol-5-yl]-1-methyl-1H-pyrrole-2-carbonitrile] | 6.8 nM
CCS(=O)(=O)N1CCc2cc(-c3ccc(C#N)n3C)ccc21 [Example 4, 5-[1-(ethylsulfonyl)-2,3-dihydro-1H-indol-5-yl]-1-methyl-1H-pyrrole-2-carbonitrile] | 2.4 nM
CC(C)S(=O)(=O)N1CCc2cc(-c3ccc(C#N)n3C)ccc21 [Example 5, 5-[1-(isopropylsulfonyl)-2,3-dihydro-1H-indol-5-yl]-1-methyl-1H-pyrrole-2-carbonitrile] | 4.9 nM
CCCS(=O)(=O)N1CCc2cc(-c3ccc(C#N)n3C)ccc21 [Example 6, 1-methyl-5-[1-(propylsulfonyl)-2,3-dihydro-1H-indol-5-yl]-1H-pyrrole-2-carbonitrile] | 2.3 nM
Cn1c(C#N)ccc1-c1cc(F)c2c(c1)CCN2S(C)(=O)=O [Example 7, 5-[7-fluoro-1-(methylsulfonyl)-2,3-dihydro-1H-indol-5-yl]-1-methyl-1H-pyrrole-2-carbonitrile] | 11.1 nM
CCS(=O)(=O)N1CCc2cc(-c3ccc(C#N)n3C)cc(F)c21 [Example 8, 5-[1-(ethylsulfonyl)-7-fluoro-2,3-dihydro-1H-indol-5-yl]-1-methyl-1H-pyrrole-2-carbonitrile] | 12.2 nM
Cn1c(C#N)ccc1-c1ccc2c(c1)CCCN2S(C)(=O)=O [Example 9, 1-methyl-5-[1-(methylsulfonyl)-1,2,3,4-tetrahydroquinolin-6-yl]-1H-pyrrole-2-carbonitrile] | 4.4 nM
CCS(=O)(=O)N1CCCc2cc(-c3ccc(C#N)n3C)ccc21 [Example 10, 5-[1-(ethylsulfonyl)-1,2,3,4-tetrahydroquinolin-6-yl]-1-methyl-1H-pyrrole-2-carbonitrile] | 3.15 nM
CCCS(=O)(=O)N1CCCc2cc(-c3ccc(C#N)n3C)ccc21 [Example 11, 1-methyl-5-[1-(propylsulfonyl)-1,2,3,4-tetrahydroquinolin-6-yl]-1H-pyrrole-2-carbonitrile] | 3.6 nM
